The values below come from patent US20250346600A1, “TRICYCLIC DERIVATIVES AND RELATED USES” (MOMA Therapeutics, Inc., priority 2023, published 2025).

Test [1] has as its target T1, Full length WRN protein (aa 2-1432) (Homo sapiens (Human), UniProt Q14191). As to the kind of experiment: WRN ATPase ADP-Glo biochemical assay, Assay Format A (10 μM ATP). Conditions: 0.25 nM WRN, 100 nM C6.18 ssDNA, 30 min preincubation, read-out: ATPase ADPGlo AC50 (uM)- Assay Format A. In short, it runs like this: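 ADP-Glo luminescence measured hydrolysis of ATP by purified, baculovirus-expressed N-terminally tagged full-length WRN. Enzyme (0.5 nM) was preincubated 30 min with compound, then 200 nM ssDNA C6.18 plus 20 μM ATP were added (pre-mix levels) for 30 min at RT. IC50s come from four-parameter fits, geometric mean of at least two trials.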

For another test, the system named is HCT116 cells. The test is described as follows: HCT116 (MSI) 7 day viability, CellTiter Glo. It is filed as cell-based. The settings on record: Homo sapiens, HCT-116, 168 h, 7 days, read-out: HCT116 (MSI) Viability 7 Day Abs AC50. The essentials:
(§1)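 For each line, compound dilution series (3-fold, 10 points) met a defined seeding density—HCT116 50, HT29 500 cells/well—followed by 7 days at 37 °C. Luminescent ATP signal, background-corrected with no-cell wells, gave four-parameter logistic IC50s.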

Test [2] concerns the target T1, Full length WRN protein (aa 2-1432). As to the kind of experiment: WRN ATPase ADP-Glo biochemical assay, Assay Format B (100 μM ATP). The settings on record: 0.25 nM WRN, 100 nM C6.18 ssDNA, 60 min preincubation, read-out: ATPase ADPGlo AC50 (uM)- Assay Format B.
The subject of a further test is HT29 cells. As to the kind of experiment: HT29 (MSS) 7 day viability, CellTiter Glo. The settings on record: Homo sapiens, HT-29, 168 h, 7 days, read-out: HT29 (MSS) Viability 7 Day CTGAbs AC50. Type of test: cell-based. The essentials:
as §1

T1 sequence (Q14191 2-1432): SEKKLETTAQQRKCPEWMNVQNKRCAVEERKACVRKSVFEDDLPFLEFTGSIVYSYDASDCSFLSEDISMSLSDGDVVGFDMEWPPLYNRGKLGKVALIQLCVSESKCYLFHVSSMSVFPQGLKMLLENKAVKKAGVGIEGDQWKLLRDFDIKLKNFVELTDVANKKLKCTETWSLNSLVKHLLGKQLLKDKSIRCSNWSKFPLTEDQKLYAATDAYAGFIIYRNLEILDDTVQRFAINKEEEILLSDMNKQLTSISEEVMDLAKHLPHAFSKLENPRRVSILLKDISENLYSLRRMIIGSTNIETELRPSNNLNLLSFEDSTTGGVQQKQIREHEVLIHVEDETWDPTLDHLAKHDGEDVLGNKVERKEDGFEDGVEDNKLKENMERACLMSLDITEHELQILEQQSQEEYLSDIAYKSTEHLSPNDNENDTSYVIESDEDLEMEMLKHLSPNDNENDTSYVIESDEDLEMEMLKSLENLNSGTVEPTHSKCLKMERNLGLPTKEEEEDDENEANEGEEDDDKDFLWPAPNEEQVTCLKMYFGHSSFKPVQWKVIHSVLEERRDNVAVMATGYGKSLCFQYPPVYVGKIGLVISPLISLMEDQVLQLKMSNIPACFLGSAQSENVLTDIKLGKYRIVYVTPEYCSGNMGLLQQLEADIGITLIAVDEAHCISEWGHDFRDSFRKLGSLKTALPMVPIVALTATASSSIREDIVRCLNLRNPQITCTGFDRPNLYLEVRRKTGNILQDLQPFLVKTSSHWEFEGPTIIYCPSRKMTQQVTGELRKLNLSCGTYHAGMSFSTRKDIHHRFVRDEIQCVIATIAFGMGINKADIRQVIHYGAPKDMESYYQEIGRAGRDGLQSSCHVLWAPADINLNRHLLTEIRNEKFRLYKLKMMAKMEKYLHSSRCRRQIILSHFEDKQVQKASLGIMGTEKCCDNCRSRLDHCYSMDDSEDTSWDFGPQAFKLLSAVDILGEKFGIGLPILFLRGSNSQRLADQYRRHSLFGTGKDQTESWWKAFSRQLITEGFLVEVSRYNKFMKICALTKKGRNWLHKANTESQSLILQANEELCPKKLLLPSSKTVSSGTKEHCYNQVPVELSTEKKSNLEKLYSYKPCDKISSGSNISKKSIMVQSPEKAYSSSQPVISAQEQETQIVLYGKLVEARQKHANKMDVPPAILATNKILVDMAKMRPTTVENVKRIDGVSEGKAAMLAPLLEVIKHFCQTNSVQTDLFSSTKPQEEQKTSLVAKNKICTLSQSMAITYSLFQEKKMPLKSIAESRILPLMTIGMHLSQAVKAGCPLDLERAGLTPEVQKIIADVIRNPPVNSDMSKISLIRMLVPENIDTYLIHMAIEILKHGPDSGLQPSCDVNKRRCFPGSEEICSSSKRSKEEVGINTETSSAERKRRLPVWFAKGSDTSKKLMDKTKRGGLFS

Take `C=CC(=O)N1CCc2nn(-c3ccc(C4CCC4)c(F)c3O)c3c2C(C1)N(C(=O)c1cnc(C(F)(F)F)c(O)c1)CC3` (stereo not shown) [Compound 141, 1-(2-(4-cyclobutyl-3-fluoro-2-hydroxyphenyl)-5-(5-hydroxy-6-(trifluoromethyl)nicotinoyl)-2,3,4,5,5a,6,8,9-octahydro-7H-1,2,5,7-tetraazabenzo[cd]azulen-7-yl)prop-2-en-1-one]: the half-maximal activity concentration (AC50) in test [1] is less than 0.0015 µM; in the test with HCT116 cells it was 1 to 100 nM; in test [2], 0.005 to 0.015 µM; in the test with HT29 cells, greater than 3000 nM.

`C=CC(=O)N1CCc2nn(-c3ccc(C4CCC4)cc3O)c3c2C(C1)N(C(=O)c1ncc(C(F)(F)F)cc1N)CC3` (stereo not shown) [Compound 142, 1-(5-(3-amino-5-(trifluoromethyl)picolinoyl)-2-(4-cyclobutyl-2-hydroxyphenyl)-2,3,4,5,5a,6,8,9-octahydro-7H-1,2,5,7-tetraazabenzo[cd]azulen-7-yl)prop-2-en-1-one]: the AC50 was less than 0.0015 µM in test [1], 1 to 100 nM in the test on HCT116 cells, 0.015 to 0.055 µM in test [2] and greater than 3000 nM in the test on HT29 cells.

For `C=CC(=O)N1CCc2nn(-c3ccc(C4CC4)cc3O)c3c2C(C1)N(C(=O)c1ccc(Br)c2[nH]c(C(F)F)nc12)CC3` (stereo not shown) [Compound 143, 1-(5-(7-bromo-2-(difluoromethyl)-1H-benzo[d]imidazole-4-carbonyl)-2-(4-cyclopropyl-2-hydroxyphenyl)-2,3,4,5,5a,6,8,9-octahydro-7H-1,2,5,7-tetraazabenzo[cd]azulen-7-yl)prop-2-en-1-one], the AC50 in test [1] is less than 0.0015 µM; with HCT116 cells, 1 to 100 nM; in test [2], 0.005 to 0.015 µM; in the test on HT29 cells, greater than 3000 nM.

In the case of `C=CC(=O)N1CCc2nn(-c3ccc(C4CCC4)cc3O)c3c2C(C1)N(C(=O)c1cnc(Cl)cc1N)CC3` (stereo not shown) [Compound 144, 1-(5-(4-amino-6-chloronicotinoyl)-2-(4-cyclobutyl-2-hydroxyphenyl)-2,3,4,5,5a,6,8,9-octahydro-7H-1,2,5,7-tetraazabenzo[cd]azulen-7-yl)prop-2-en-1-one], the AC50 is less than 0.0015 µM in test [1], 1 to 100 nM in the test with HCT116 cells, 0.0015 to 0.005 µM in test [2] and greater than 3000 nM in the test with HT29 cells.

Turning to `C=CC(=O)N1CCc2nn(-c3ccc(C4CCC4)cc3O)c3c2C(C1)N(C(=O)c1cnc2c(C)nn(C)c2c1)CC3` (stereo not shown) [Compound 145, 1-(2-(4-cyclobutyl-2-hydroxyphenyl)-5-(1,3-dimethyl-1H-pyrazolo[4,3-b]pyridine-6-carbonyl)-2,3,4,5,5a,6,8,9-octahydro-7H-1,2,5,7-tetraazabenzo[cd]azulen-7-yl)prop-2-en-1-one], the AC50 in test [1] is less than 0.0015 µM; with HCT116 cells it was 1 to 100 nM; in test [2], 0.005 to 0.015 µM; in the test with HT29 cells, greater than 3000 nM.

Regarding `C=CC(=O)N1CCc2nn(-c3ccc(C4CCC4)cc3O)c3c2C(C1)N(C(=O)c1ccc(C(F)F)nc1N)CC3` (stereo not shown) [Compound 146, 1-(5-(2-amino-6-(difluoromethyl)nicotinoyl)-2-(4-cyclobutyl-2-hydroxyphenyl)-2,3,4,5,5a,6,8,9-octahydro-7H-1,2,5,7-tetraazabenzo[cd]azulen-7-yl)prop-2-en-1-one], the AC50 in test [1] is less than 0.0015 µM; in the test with HCT116 cells it was 1 to 100 nM; in test [2] it was 0.005 to 0.015 µM; in the test with HT29 cells, greater than 3000 nM.

Take `C=CC(=O)N1CCc2nn(-c3ccc(C4CCC4)cc3O)c3c2C(C1)N(C(=O)c1ccc(Br)c2nc(CCO)[nH]c12)CC3` (stereo not shown) [Compound 148, 1-(5-(4-bromo-2-(2-hydroxyethyl)-1H-benzo[d]imidazole-7-carbonyl)-2-(4-cyclobutyl-2-hydroxyphenyl)-2,3,4,5,5a,6,8,9-octahydro-7H-1,2,5,7-tetraazabenzo[cd]azulen-7-yl)prop-2-en-1-one]: the half-maximal activity concentration (AC50) is less than 0.0015 µM in test [1], 1 to 100 nM with HCT116 cells, 0.005 to 0.015 µM in test [2] and greater than 3000 nM with HT29 cells.

For the compound `C=CC(=O)N1CCc2nn(-c3ccc(C4CCC4)cc3O)c3c2C(C1)N(C(=O)c1cnc(C(F)(F)F)cc1O)CC3` (stereo not shown) [Compound 149, 1-(2-(4-cyclobutyl-2-hydroxyphenyl)-5-(4-hydroxy-6-(trifluoromethyl)nicotinoyl)-2,3,4,5,5a,6,8,9-octahydro-7H-1,2,5,7-tetraazabenzo[cd]azulen-7-yl)prop-2-en-1-one], the AC50 in test [1] is less than 0.0015 µM; with HCT116 cells it was 250 to 500 nM; in test [2], 0.005 to 0.015 µM; in the test with HT29 cells, greater than 3000 nM.

Consider `C=CC(=O)N1CCc2nn(-c3ccc(C(C)C)cc3)c3c2C(C1)N(C(=O)c1cnc(C(F)(F)F)cc1N)CC3` (stereo not shown) [Compound 150, 1-(5-(4-amino-6-(trifluoromethyl)nicotinoyl)-2-(4-isopropylphenyl)-2,3,4,5,5a,6,8,9-octahydro-7H-1,2,5,7-tetraazabenzo[cd]azulen-7-yl)prop-2-en-1-one], for which the AC50 in test [1] was less than 0.0015 µM; with HCT116 cells, 1 to 100 nM; in test [2], 0.005 to 0.015 µM; with HT29 cells, greater than 3000 nM.

`C=CC(=O)N1CCc2nn(-c3ccc(C45CC(C4)C5)cc3)c3c2C(C1)N(C(=O)c1ccc(C(F)(F)F)nc1N)CC3` (stereo not shown) [Compound 152, 1-(5-(2-amino-6-(trifluoromethyl)nicotinoyl)-2-(4-(bicyclo[1.1.1]pentan-1-yl)phenyl)-2,3,4,5,5a,6,8,9-octahydro-7H-1,2,5,7-tetraazabenzo[cd]azulen-7-yl)prop-2-en-1-one]: the concentration at half-maximal activity (AC50) in test [1] is less than 0.0015 µM; in the test with HCT116 cells, 1 to 100 nM; in test [2] it was 0.015 to 0.055 µM; in the test with HT29 cells, greater than 3000 nM.

On to `C=CC(=O)N1CCc2nn(-c3ccc(C4CCC4)cc3O)c3c2C(C1)N(C(=O)c1cc(O)c2scnc2c1)CC3` (stereo not shown) [Compound 153, 1-(2-(4-cyclobutyl-2-hydroxyphenyl)-5-(7-hydroxybenzo[d]thiazole-5-carbonyl)-2,3,4,5,5a,6,8,9-octahydro-7H-1,2,5,7-tetraazabenzo[cd]azulen-7-yl)prop-2-en-1-one], for which the half-maximal activity concentration (AC50) in test [1] was less than 0.0015 µM; in the test on HCT116 cells, 1 to 100 nM; in test [2] it was 0.0015 to 0.005 µM; with HT29 cells it was greater than 3000 nM.

For `C=CC(=O)N1CCc2nn(-c3ccc(C4CCC4)cc3O)c3c2C(C1)N(C(=O)c1ccc(C(C)(F)F)nc1N)CC3` (stereo not shown) [Compound 155, 1-(5-(2-amino-6-(1,1-difluoroethyl)nicotinoyl)-2-(4-cyclobutyl-2-hydroxyphenyl)-2,3,4,5,5a,6,8,9-octahydro-7H-1,2,5,7-tetraazabenzo[cd]azulen-7-yl)prop-2-en-1-one], the AC50 is less than 0.0015 µM in test [1], 1 to 100 nM with HCT116 cells, 0.005 to 0.015 µM in test [2] and greater than 3000 nM in the test with HT29 cells.

With `C=CC(=O)N1CC(OC)c2nn(-c3ccc(C4CCC4)cc3)c3c2C(C1)N(C(=O)c1cnc(C(F)(F)F)c(O)c1)CC3` (stereo not shown) [Compound 156, 1-(2-(4-cyclobutylphenyl)-5-(5-hydroxy-6-(trifluoromethyl)nicotinoyl)-9-methoxy-2,3,4,5,5a,6,8,9-octahydro-7H-1,2,5,7-tetraazabenzo[cd]azulen-7-yl)prop-2-en-1-one], the concentration at half-maximal activity (AC50) in test [1] was 0.0015 to 0.005 µM; in the test on HCT116 cells, 1 to 100 nM; in test [2] it was 0.005 to 0.015 µM; with HT29 cells, greater than 3000 nM.

`C=CC(=O)N1CCc2nn(-c3ccc(C4CCC4)cc3O)c3c2C(C1)N(C(=O)c1ccc(SC(F)(F)F)nc1)CC3` (stereo not shown) [Compound 157, 1-(2-(4-cyclobutyl-2-hydroxyphenyl)-5-(6-((trifluoromethyl)thio)nicotinoyl)-2,3,4,5,5a,6,8,9-octahydro-7H-1,2,5,7-tetraazabenzo[cd]azulen-7-yl)prop-2-en-1-one]: the AC50 in test [1] is less than 0.0015 µM; in the test with HCT116 cells, 1 to 100 nM; in test [2] it was 0.005 to 0.015 µM; with HT29 cells it was greater than 3000 nM.

For the compound `C=CC(=O)N1CCc2nn(-c3ccc(C4CCC4)cc3)c3c2C(C1)N(C(=O)c1ccc(Br)c2[nH]nc(N)c12)CC3` (stereo not shown) [Compound 158, 1-(5-(3-amino-7-bromo-1H-indazole-4-carbonyl)-2-(4-cyclobutylphenyl)-2,3,4,5,5a,6,8,9-octahydro-7H-1,2,5,7-tetraazabenzo[cd]azulen-7-yl)prop-2-en-1-one], the AC50 is less than 0.0015 µM in test [1], 1 to 100 nM in the test on HCT116 cells, 0.0015 to 0.005 µM in test [2] and greater than 3000 nM in the test with HT29 cells.

With `C=CC(=O)N1CCc2nn(-c3ccc(C4CCC4)cc3O)c3c2C(C1)N(C(=O)c1ncc(C(F)(F)F)c(N)n1)CC3` (stereo not shown) [Compound 159, 1-(5-(4-amino-5-(trifluoromethyl)pyrimidine-2-carbonyl)-2-(4-cyclobutyl-2-hydroxyphenyl)-2,3,4,5,5a,6,8,9-octahydro-7H-1,2,5,7-tetraazabenzo[cd]azulen-7-yl)prop-2-en-1-one], the concentration at half-maximal activity (AC50) in test [1] is 0.0015 to 0.005 µM; with HCT116 cells, 1 to 100 nM; in test [2], 0.015 to 0.055 µM; in the test with HT29 cells, greater than 3000 nM.
